Measured values from US20260284066A1, “TYK2 INHIBITORS AND COMPOSITIONS AND METHODS THEREOF” (LYNK PHARMACEUTICALS CO. LTD., priority 2023, published 2026).
In brackets after ≈: the same amount, converted by molar mass. Read-outs that look alike come from different tables or passages of the source.

Columns and labels:
TYK2-JH2 domain = target: T1, TYK2-JH2 domain (Homo sapiens, UniProt P29597); test: Binding activity test for TYK2 JH2 domain (Tb-antibody/tracer FRET); details: for JAK1/TYK2 selectivity: ratio of JAK1 JH2 to TYK2 JH2 binding IC50; for IC50: read-out: TYK2 JH2 Binding IC50
T1 construct: JAK1-JH2 domain or TYK2-JH2 domain enzyme

JAK1-JH2 domain = target: T2, JAK1-JH2 domain (Homo sapiens, UniProt P23458); test: Binding activity test for JAK1 JH2 domain (Tb-antibody/tracer FRET); details: read-out: JAK1 JH2 Binding IC50
T2 construct: JAK1-JH2 domain or TYK2-JH2 domain enzyme
Experimental: Binding Activity test for JH2 domain of JAK and TYK2
75 nL DMSO for high control and low control.
For low control, add 5 μL/well assay buffer. […] After enzyme system prepared, add 5 μL of Tb-antibody solution into each wells of assay plate. […] After Tb-antibody added, also add 5 μL of tracer into the assay plate. […] Incubate for 60 mins at 25° C. firstly and then continue to incubate the plate at 4° C. overnight. Read by envision in FRET mode. The Luminescence value was recorded by a multi-label reader Envision (PerkinElmer). Inhibition Rate was calculated relative to vehicle (DMSO) treated control wells using following formula:
wherein • RLU_compound=the relative light unit of cells treated with test compounds • RLU_low control=the relative light unit of medium with DMSO only • RLU_high control=the relative light unit of cells treated with DMSO only

[1] = Microsomal metabolic stability assay; type: in vitro ADME, human; details: for half-life at 1 µM / microsomal CLint at 1 µM: human, liver microsomes, pH 7.4, human liver microsomes 0.5 mg/mL; for half-life at 1 µM: read-out: Human LM T½; for microsomal CLint at 1 µM: read-out: Human LM Clint
Experimental: Microsomal Metabolic Stability Assay
Microsomes were pre-incubated with test compound or control compounds for 5 min at 37° C. in 100 mM potassium phosphate buffer, pH 7.4, 1.0 mM EDTA. The reaction was initiated by addition of 15 μL of the NADPH regenerating system to 30 μL of each incubation mixture per time point. The final incubation condition was composed of 0.5 mg/mL microsomal protein, 1 μM test article/positive control, 2 mM NADPH. The 0-minute samples were prepared by addition of a 30 μL aliquot of each incubation mixture to 135 μL quench reagent to precipitate proteins. And then a 15 μL aliquot of the NADPH regenerating system was added. At 5, 15, 30 and 45 minutes, the reaction will be stopped by the addition of cold acetonitrile solution containing internal standard. The samples taken at all time points were centrifuged at 5000×g for 15 minutes. 50 μL of supernatant are taken into 96-well assay plates pre-added with 50 μL ultrapure water, and then analyzed by LC/MS/MS.
Concentrations of test articles, control compounds in the samples were determined by using LC/MS/MS method. Plotting of the chromatograms and peak area integrations are carried out by Analyst (AB Sciex).
In the determination of the in vitro elimination constant (ke) of the control compounds, the analyte/internal standard peak area ratios will be converted to percentage remaining (% Remaining) with the following equation:
The CLint of microsomes was calculated using the formula: CLint (mic)=0.693/T1/2/mg microsome protein per mL. The slope was measured by the natural logarithm of the percentage of the residual compound and time, T1/2 was calculated according to the following formula.

Kinetic solubility = type: physicochemical; details: 100 mM pH 7.4 phosphate buffer, 1% DMSO, room temperature, read-out: Kinetics Solubility_PBS7.4
Experimental: Aliquots of 8 μL of reference and test compound stock solutions (10 mM/5 mM) are added into 792 μL of 100 mM pH 7.4 phosphate buffer. The final DMSO concentration is 1%. Sample tubes are shaken for 2 hours at 1000 rpm at room temperature. Samples are centrifuged at 12000 rpm for 10 min to precipitate un-dissolved particles. And transfer the supernatants to a new tube or plate. Add 5 μL of samples (no diluted, 10 times diluted and 100 times diluted) and standard curve samples to 95 μL of ACN containing IS for LC-MS/MS analysis.

pSTAT1 = test: Phosphorylation inhibition of STAT in human whole blood (IFN-alpha stimulated, flow cytometry); type: cell-based; details: T-cell, CD3+ T cells, read-out: pSTAT1 inhibition in hWB (IC50)
Experimental: Phosphorylation Inhibition of STAT in Human Whole Blood Testing: The inhibitory potential of test articles in human whole blood assay was evaluated by the method of flow cytometry. IFN-alpha will activate JAK1 and TYK2 kinase in T cells by binding to IFN receptors, and then lead to phosphorylation of STAT1 and STAT2. The phosphorylated STAT1 enter nuclear and promote transcription and expression of IFN-gamma. To evaluate the efficacy of TYK2i in T cells, freshly collected human whole blood will be stimulated with certain unit of human IFN-alpha (Universal Type I IFN (1MU), R&D, 11200-2) for 20 mins in incubator. After stimulation, fix cells with PhosflowTM Fix Buffer I (BD, 557870), and then collect fixed cells by centrifugation (500 g, 8 min). Wash cells once with pre-cooled PBS, and then permeabilize cells with cold Perm Buffer III buffer (BD, 558050) for 45 mins on ice. Collect cells by centrifugation (600 g, 8 min) and washed twice with cold PBS. Stain cells with anti-human CD3(FITC Mouse Anti-Human CD3, BD, 555332) and anti-pSTAT1_Y701 (Alexa Fluor 647 Mouse Anti-Stat1 ([…]), BD, 612597) antibodies. Detect pSTAT1 by flow cytometry (CytoFlex S) and analyze data with FlowJo and GraphPad Prism 8 software. IC50 values of test articles were determined using 4-parameter logistic equation.

TYK2 pathway = test: IFN-γ release in NK92 cells stimulated by IL-12 (ELISA); type: cell-based; details: Homo sapiens, IL-12 2.5 ng/mL
Excerpt: IFN-γ Release in NK92 Cells Stimulated by IL-12
Purpose: To evaluate the inhibition activity of TYK2 inhibitors in NK92 cells on TYK2 pathway through ELISA method.

[2] = human liver microsomes 0.5 mg/mL, 1 μM

T2 sequence (P23458 583-855 limits assumed): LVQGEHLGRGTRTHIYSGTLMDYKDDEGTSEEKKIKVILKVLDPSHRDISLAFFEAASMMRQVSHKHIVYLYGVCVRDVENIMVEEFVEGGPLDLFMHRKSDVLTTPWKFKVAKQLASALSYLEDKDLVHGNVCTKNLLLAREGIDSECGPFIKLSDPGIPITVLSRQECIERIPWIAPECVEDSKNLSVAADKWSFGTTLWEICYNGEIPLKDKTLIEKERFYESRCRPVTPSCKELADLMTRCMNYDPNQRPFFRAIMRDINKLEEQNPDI
T1 sequence (P29597 589-875 limits assumed): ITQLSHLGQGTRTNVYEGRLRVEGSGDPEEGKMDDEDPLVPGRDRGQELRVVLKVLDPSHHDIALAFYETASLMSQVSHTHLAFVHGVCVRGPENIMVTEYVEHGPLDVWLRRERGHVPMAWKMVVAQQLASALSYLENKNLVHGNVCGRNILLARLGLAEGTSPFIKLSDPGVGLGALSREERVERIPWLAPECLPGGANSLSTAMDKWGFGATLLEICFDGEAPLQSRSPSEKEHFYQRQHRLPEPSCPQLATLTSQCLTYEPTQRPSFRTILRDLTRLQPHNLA

| Molecule | JAK1/TYK2 selectivity (TYK2-JH2 domain) | IC50 (TYK2-JH2 domain) | IC50 (JAK1-JH2 domain) | Human LM Clint [1, 2] | half-life at 1 µM [1] | solubility kinetic at 2 h (Kinetic solubility; aqueous buffer) | IC50 (pSTAT1) | microsomal CLint at 1 µM [1] | IC50 (TYK2 pathway) | Human LM T½ [1, 2] | solubility kinetic at 2 h (Kinetic solubility) |
| --- | --- | --- | --- | --- | --- | --- | --- | --- | --- | --- | --- |
| [2H]C([2H])([2H])NC(=O)c1cnc(NC(=O)C2CC2)cc1Nc1ncc2cnn(C(C)C(F)(F)F)c2c1OC (single isomer, unassigned) [Example 3B, (S*)-6-(Cyclopropanecarboxamido)-4-((7-methoxy-1-(1,1,1-trifluoropropan-2-yl)-1H-pyrazolo[4,3-c]pyridin-6-yl)amino)-N-(methyl-d3)nicotinamide] | 141.36 | 0.805 nM | 114 nM | 5.33 µL/min/mg | 4.33 h | 12.8 µM (≈ 6.13 µg/mL) | – | – | – | – | – |
| [2H]C([2H])([2H])NC(=O)c1cnc(NC(=O)C2CC2)cc1Nc1ccc2cnn(CC(C)(F)F)c2c1OC [Example 2, 6-(Cyclopropanecarboxamido)-4-((1-(2,2-difluoropropyl)-7-methoxy-1H-indazol-6-yl)amino)-N-(methyl-d3)nicotinamide] | 78.97 | 0.239 nM | 18.9 nM | – | 0.429 h | – | 327 nM | 53.8 µL/min/mg | – | – | – |
| [2H]C([2H])([2H])NC(=O)c1cnc(NC(=O)[C@@H]2C[C@@H]2F)cc1Nc1ncc2cnn(CC(F)(F)F)c2c1OC [Example 9, 6-((1S,2S)-2-fluorocyclopropane-1-carboxamido)-4-((7-methoxy-1-(2,2,2-trifluoroethyl)-1H-pyrazolo[4,3-c]pyridin-6-yl)amino)-N-(methyl-d3)nicotinamide] | 166.08 | 0.212 nM | 35.2 nM | – | 4.27 h | 38.2 µM (≈ 18.5 µg/mL) | 274 nM | 5.42 µL/min/mg | – | – | – |
| [2H]C([2H])([2H])NC(=O)c1cnc(NC(=O)[C@H]2C[C@H]2F)cc1Nc1ncc2cnn(CC(F)(F)F)c2c1OC [Example 10, 6-((1R,2R)-2-fluorocyclopropane-1-carboxamido)-4-((7-methoxy-1-(2,2,2-trifluoroethyl)-1H-pyrazolo[4,3-c]pyridin-6-yl)amino)-N-(methyl-d3)nicotinamide] | 86.04 | 0.408 nM | 35.1 nM | – | 5.15 h | 29 µM (≈ 14 µg/mL) | – | 4.49 µL/min/mg | – | – | – |
| [2H]C([2H])([2H])NC(=O)c1cnc(NC(=O)C2CC2)cc1Nc1ncc2ncn(CC(C)(F)F)c2c1OC [Example 14, 6-(Cyclopropanecarboxamido)-4-((1-(2,2-difluoropropyl)-7-methoxy-1H-imidazo[4,5-c]pyridin-6-yl)amino)-N-(methyl-d3)nicotinamide] | 217.86 | 0.178 nM | 38.8 nM | – | 0.589 h | 16.9 µM (≈ 7.82 µg/mL) | – | 39.2 µL/min/mg | – | – | – |
| [2H]C([2H])([2H])NC(=O)c1cnc(NC(=O)C2CC2)cc1Nc1ccc2ccn(C([2H])([2H])[2H])c2c1OC [Example 15, 6-(Cyclopropanecarboxamido)-4-((7-methoxy-1-(methyl-d3)-1H-indol-6-yl)amino)-N-(methyl-d3)nicotinamide] | 15.64 | 0.094 nM | 1.47 nM | – | – | – | 205 nM | – | – | – | – |
| [2H]C([2H])([2H])NC(=O)c1cnc(NC(=O)C2CC2)cc1Nc1cc(F)c2ccn(CC)c2c1OC [Example 16, 6-(Cyclopropanecarboxamido)-4-((1-ethyl-4-fluoro-7-methoxy-1H-indol-6-yl)amino)-N-(methyl-d3)nicotinamide] | 70.10 | 0.083 nM | 5.82 nM | – | – | – | 220 nM | – | – | – | – |
| CNC(=O)c1cnc(NC(=O)C2CC2)cc1Nc1ncn2ncc(C#N)c2c1OC [Example 20, 4-((3-Cyano-4-methoxypyrazolo[1,5-c]pyrimidin-5-yl)amino)-6-(cyclopropanecarboxamido)-N-methylnicotinamide] | 63.62 | 0.304 nM | 19.3 nM | – | 0.589 h | – | 167 nM | 39.2 µL/min/mg | – | – | – |
| [2H]C([2H])([2H])NC(=O)c1cnc(Nc2ccn(C)n2)cc1Nc1ncc2cnn(CC(C)(F)F)c2c1OC [Example 22, 4-((1-(2,2-Difluoropropyl)-7-methoxy-1H-pyrazolo[4,3-c]pyridin-6-yl)amino)-N-(methyl-d3)-6-((1-methyl-1H-pyrazol-3-yl)amino)nicotinamide] | 113.31 | 2.62 nM | 297 nM | – | 2.5 h | 19.8 µM (≈ 9.39 µg/mL) | – | 9.25 µL/min/mg | – | – | – |
| [2H]C([2H])([2H])NC(=O)c1cnc(NC(=O)C2CC2)cc1Nc1ccc2ncn(CC(F)(F)F)c2c1OC [Example 27, 6-(Cyclopropanecarboxamido)-4-((7-methoxy-1-(2,2,2-trifluoroethyl)-1H-benzo[d]imidazol-6-yl)amino)-N-(methyl-d3)nicotinamide] | >107.8 | 2.77 nM | > 298 nM | – | – | 44.2 µM (≈ 20.6 µg/mL) | – | – | – | – | – |
| [2H]C([2H])([2H])NC(=O)c1cnc(NC(=O)C2CC2)nc1Nc1ncc2cnn(CC(C)(F)F)c2c1OC [Example 28, 2-(Cyclopropanecarboxamido)-4-((1-(2,2-difluoropropyl)-7-methoxy-1H-pyrazolo[4,3-c]pyridin-6-yl)amino)-N-(methyl-d3)pyrimidine-5-carboxamide] | – | > 298 nM | > 298 nM | – | – | 20.6 µM (≈ 9.55 µg/mL) | – | – | – | – | – |
| [2H]C([2H])([2H])NC(=O)c1cnc(NC(=O)C2CC2)cc1Nc1ccn2ncc(Br)c2c1OC [Example 29, 4-((3-Bromo-4-methoxypyrazolo[1,5-a]pyridin-5-yl)amino)-6-(cyclopropanecarboxamido)-N-(methyl-d3)nicotinamide] | 42.0 | 0.188 nM | 7.87 nM | – | – | – | – | – | 32.1 nM | – | – |
| (R*)-6(Cyclopropanecarboxamido)-4((7-methoxy-1-(1,1,1-trifuoropropan-2-yl)-1H-pyrazolo[4,3-c]pyridin-6-yl)amino)-N-(methyl-d3)nicotinamide [Example 3A] | >34.94 | 8.54 nM | > 298 nM | 6.20 µL/min/mg | – | – | – | – | – | 3.7278 h | 19.05 µM |
